From patent US7846956B2, “Malononitrile compound as pesticides” (Sumitomo Chemical Company, Limited, priority 2004, dated 2010)

What follows are compounds tested on Musca domestics (assay: Experimental Example 3: filter paper test with sucrose bait, death rate of Musca domestics). Conditions: 500 ppm active ingredient, 0.7 ml on filter paper, 10 female imagoes, after 24 hours, read-out: death rate of the pest.
Type: in vivo
Method: Preparations of the present compounds (1), (2), (3), (4), (5), (6), (8), (9), (10), (11), (12), (13), (14), (15), (16), (17), (18), (19), (21), (22), (23), (24), (25), (26), (27), (31), (34), (35), (36), (37), (38), (39), (40), (42), (47), (50), (52), (54), (66), (67) and (68) obtained according to Formulation Example 5 were diluted with water so that the active ingredient concentration was 500 ppm to prepare experimental pesticidal solutions.
(§1) A filter paper having a diameter of 5.5 cm was spread on the bottom of a polyethylene cup having a diameter of 5.5 cm and 0.7 ml of the experimental pesticidal solution was added dropwise onto the filter paper. As a bait 30 mg of sucrose was uniformly placed on the filter paper. Into the polyethylene cup, 10 female Musca domestics imagoes were released and the cup was sealed with a lid. After 24 hours, the number of surviving Musca domestics was examined and the death rate of the pest was calculated.

SMILES	pest or weed control at 500 ppm [%]
CC(C)(C)c1cc(CC(C#N)(C#N)CCC(F)(F)F)on1 [present compound (4)]	≥ 90
CC(F)c1cc(CC(C#N)(C#N)CCC(F)(F)F)no1 (stereo not drawn) [present compound (50)]	≥ 90
CC(C)(C)c1nsc(CC(C#N)(C#N)CCC(F)(F)F)n1 [present compound (21)]	≥ 90
N#CC(C#N)(CCC(F)(F)F)Cc1cc(C(F)F)on1 [present compound (47)]	≥ 90
COc1cc(CC(C#N)(C#N)CCC(F)(F)F)on1 [present compound (68)]	≥ 90
N#CC(C#N)(CCC(F)(F)F)Cc1cc(C(F)(F)F)on1 [present compound (35)]	≥ 90
CC(C)c1cc(CC(C#N)(C#N)CCC(F)(F)F)no1 [present compound (40)]	≥ 90
CC(F)(F)c1cc(CC(C#N)(C#N)CCC(F)(F)F)no1 [present compound (52)]	≥ 90
CC(c1cc(C(C)(C)C)on1)C(C#N)(C#N)CCC(F)(F)F (stereo not drawn) [present compound (42)]	≥ 90
CC(c1cc(C(F)(F)F)on1)C(C#N)(C#N)CCC(F)(F)F (stereo not drawn) [present compound (36)]	≥ 90
CC(c1cnn(C(C)(C)C)c1)C(C#N)(C#N)CCC(F)(F)F (stereo not drawn) [present compound (27)]	≥ 90
CC(C)(C)c1nc(CC(C#N)(C#N)CCC(F)(F)F)co1 [present compound (9)]	≥ 90
Cc1ncc(CC(C#N)(C#N)CCC(F)(F)F)s1 [present compound (15)]	≥ 90
CC(C)(C)c1nc(CC(C#N)(C#N)CCC(F)(F)F)cs1 [present compound (12)]	≥ 90
C=CC(c1cc(C(C)(C)O)on1)C(C#N)(C#N)CCC(F)(F)F (stereo not drawn) [present compound (66)]	≥ 90
N#CC(C#N)(CCC(F)(F)F)Cc1cnn(Cc2ccccc2)c1 [present compound (8)]	≥ 90
CC(C)(C)c1nc(CC(C#N)(C#N)CCC(F)(F)F)no1 [present compound (24)]	≥ 90
Cn1nc(C(C)(C)C)cc1CC(C#N)(C#N)CCC(F)(F)F [present compound (2)]	≥ 90
N#CC(C#N)(CCC(F)(F)F)Cc1csc(Cl)n1 [present compound (13)]	≥ 90
N#CC(C#N)(CCC(F)(F)F)Cc1cc(C(F)(F)C(F)(F)F)on1 [present compound (38)]	≥ 90
CC(C)(C)c1cc(CC(C#N)(C#N)CCC(F)(F)F)sn1 [present compound (5)]	≥ 90
CCC(c1cc(C(F)(F)F)on1)C(C#N)(C#N)CCC(F)(F)F (stereo not drawn) [present compound (37)]	≥ 90
CC(C)(C)c1cc(CC(C#N)(C#N)CCC(F)(F)F)no1 [present compound (6)]	≥ 90
Cc1nc(CC(C#N)(C#N)CCC(F)(F)F)cs1 [present compound (11)]	≥ 90
C#CCOc1ncc(CC(C#N)(C#N)CCC(F)(F)F)s1 [present compound (19)]	≥ 90
CC(C)(C)c1ncc(CC(C#N)(C#N)CCC(F)(F)F)s1 [present compound (17)]	≥ 90

What follows are compounds tested on Blattalla germanica (assay: Experimental Example 4: filter paper test with sucrose bait, death rate of Blattalla germanica). Conditions: 144 h; 500 ppm active ingredient, 0.7 ml on filter paper; two male imagoes; after 6 days.
Type: in vivo
Method: Preparations of the present compounds (2), (4), (5), (6), (8), (9), (11), (12), (13), (15), (17), (18), (19), (21), (24), (25), (26), (27), (35), (36), (37), (38), (40), (41), (42), (47), (50), (52), (54), (62), (64), (65), (66) and (68) obtained according to Formulation Example 5 were diluted with water so that the active ingredient concentration was 500 ppm to prepare experimental pesticidal solutions.
as §1, with “two male Blattalla gexmanica images” for “10 female Musca domestics imagoes”, “6 days,” for “24 hours,”, “Blattalla germanica” for “Musca domestics”

SMILES	pest or weed control at 500 ppm [%]
CC(C)(C)c1cc(CC(C#N)(C#N)CCC(F)(F)F)on1 [present compound (4)]	100
CC(F)c1cc(CC(C#N)(C#N)CCC(F)(F)F)no1 (stereo not drawn) [present compound (50)]	100
CC(C)(C)c1nsc(CC(C#N)(C#N)CCC(F)(F)F)n1 [present compound (21)]	100
N#CC(C#N)(CCC(F)(F)F)Cc1cc(C(F)F)on1 [present compound (47)]	100
COc1cc(CC(C#N)(C#N)CCC(F)(F)F)on1 [present compound (68)]	100
N#CC(C#N)(CCC(F)(F)F)Cc1cc(C(F)(F)F)on1 [present compound (35)]	100
CC(C)c1cc(CC(C#N)(C#N)CCC(F)(F)F)no1 [present compound (40)]	100
CC(F)(F)c1cc(CC(C#N)(C#N)CCC(F)(F)F)no1 [present compound (52)]	100
CC(c1cc(C(C)(C)C)on1)C(C#N)(C#N)CCC(F)(F)F (stereo not drawn) [present compound (42)]	100
CC(c1cc(C(F)(F)F)on1)C(C#N)(C#N)CCC(F)(F)F (stereo not drawn) [present compound (36)]	100
CC(c1cnn(C(C)(C)C)c1)C(C#N)(C#N)CCC(F)(F)F (stereo not drawn) [present compound (27)]	100
CC(C)(C)c1nc(CC(C#N)(C#N)CCC(F)(F)F)co1 [present compound (9)]	100
Cc1ncc(CC(C#N)(C#N)CCC(F)(F)F)s1 [present compound (15)]	100
CC(C)(C)c1nc(CC(C#N)(C#N)CCC(F)(F)F)cs1 [present compound (12)]	100
C=CC(c1cc(C(C)(C)O)on1)C(C#N)(C#N)CCC(F)(F)F (stereo not drawn) [present compound (66)]	100
N#CC(C#N)(CCC(F)(F)F)Cc1cnn(Cc2ccccc2)c1 [present compound (8)]	100
CC(C)(C)c1nc(CC(C#N)(C#N)CCC(F)(F)F)no1 [present compound (24)]	100
Cn1nc(C(C)(C)C)cc1CC(C#N)(C#N)CCC(F)(F)F [present compound (2)]	100
N#CC(C#N)(CCC(F)(F)F)Cc1csc(Cl)n1 [present compound (13)]	100
N#CC(C#N)(CCC(F)(F)F)Cc1cc(C(F)(F)C(F)(F)F)on1 [present compound (38)]	100
CC(C)(C)c1cc(CC(C#N)(C#N)CCC(F)(F)F)sn1 [present compound (5)]	100
CCC(c1cc(C(F)(F)F)on1)C(C#N)(C#N)CCC(F)(F)F (stereo not drawn) [present compound (37)]	100
CC(C)(C)c1cc(CC(C#N)(C#N)CCC(F)(F)F)no1 [present compound (6)]	100
Cc1nc(CC(C#N)(C#N)CCC(F)(F)F)cs1 [present compound (11)]	100
C#CCOc1ncc(CC(C#N)(C#N)CCC(F)(F)F)s1 [present compound (19)]	100
CC(C)(C)c1ncc(CC(C#N)(C#N)CCC(F)(F)F)s1 [present compound (17)]	100

Each compound was assayed on Culex pipiens pallens (assay: Experimental Example 5: larvae in treated water, death rate of Culex pipiens pallens). Conditions: 24 h, active ingredient concentration 3.5 ppm in water, 20 last-instar larvae, after one day, read-out: death rate of the pest.
Type: in vivo
Method: Preparations of the present compounds (1), (2), (4), (5), (6), (8), (9), (11), (12), (13), (14), (15), (16), (17), (18), (19), (21), (22), (23), (24), (25), (26), (27), (31), (33), (34), (35), (36), (37), (38), (39), (40), (42), (43), (47), (48), (50), (52), (53), (54), (62), (64), (65), (66), (67), (68) and (70) obtained according to Formulation Example 5 were diluted with water so that the active ingredient concentration was 500 ppm to prepare experimental pesticidal solutions.
0.7 ml of the experimental pesticidal solution was added to 100 mL of ion-exchanged water (active ingredient concentration: 3.5 ppm). Into the solution, 20 last-instar larvae of Culex pipiens pallens were released. After one day, the surviving number was examined and the death rate of the pest was calculated.

SMILES	pest or weed control at 3.5 ppm [%]
CC(C)(C)c1cc(CC(C#N)(C#N)CCC(F)(F)F)on1 [present compound (4)]	≥ 95
CC(F)c1cc(CC(C#N)(C#N)CCC(F)(F)F)no1 (stereo not drawn) [present compound (50)]	≥ 95
CC(C)(C)c1nsc(CC(C#N)(C#N)CCC(F)(F)F)n1 [present compound (21)]	≥ 95
N#CC(C#N)(CCC(F)(F)F)Cc1cc(C(F)F)on1 [present compound (47)]	≥ 95
COc1cc(CC(C#N)(C#N)CCC(F)(F)F)on1 [present compound (68)]	≥ 95
N#CC(C#N)(CCC(F)(F)F)Cc1cc(C(F)(F)F)on1 [present compound (35)]	≥ 95
CC(C)c1cc(CC(C#N)(C#N)CCC(F)(F)F)no1 [present compound (40)]	≥ 95
CC(F)(F)c1cc(CC(C#N)(C#N)CCC(F)(F)F)no1 [present compound (52)]	≥ 95
CC(c1cc(C(C)(C)C)on1)C(C#N)(C#N)CCC(F)(F)F (stereo not drawn) [present compound (42)]	≥ 95
CC(c1cc(C(F)(F)F)on1)C(C#N)(C#N)CCC(F)(F)F (stereo not drawn) [present compound (36)]	≥ 95
CC(c1cnn(C(C)(C)C)c1)C(C#N)(C#N)CCC(F)(F)F (stereo not drawn) [present compound (27)]	≥ 95
CC(C)(C)c1nc(CC(C#N)(C#N)CCC(F)(F)F)co1 [present compound (9)]	≥ 95
Cc1ncc(CC(C#N)(C#N)CCC(F)(F)F)s1 [present compound (15)]	≥ 95
CC(C)(C)c1nc(CC(C#N)(C#N)CCC(F)(F)F)cs1 [present compound (12)]	≥ 95
C=CC(c1cc(C(C)(C)O)on1)C(C#N)(C#N)CCC(F)(F)F (stereo not drawn) [present compound (66)]	≥ 95
N#CC(C#N)(CCC(F)(F)F)Cc1cnn(Cc2ccccc2)c1 [present compound (8)]	≥ 95
CC(C)(C)c1nc(CC(C#N)(C#N)CCC(F)(F)F)no1 [present compound (24)]	≥ 95
Cn1nc(C(C)(C)C)cc1CC(C#N)(C#N)CCC(F)(F)F [present compound (2)]	≥ 95
N#CC(C#N)(CCC(F)(F)F)Cc1csc(Cl)n1 [present compound (13)]	≥ 95
N#CC(C#N)(CCC(F)(F)F)Cc1cc(C(F)(F)C(F)(F)F)on1 [present compound (38)]	≥ 95
CC(C)(C)c1cc(CC(C#N)(C#N)CCC(F)(F)F)sn1 [present compound (5)]	≥ 95
CCC(c1cc(C(F)(F)F)on1)C(C#N)(C#N)CCC(F)(F)F (stereo not drawn) [present compound (37)]	≥ 95
CC(C)(C)c1cc(CC(C#N)(C#N)CCC(F)(F)F)no1 [present compound (6)]	≥ 95
Cc1nc(CC(C#N)(C#N)CCC(F)(F)F)cs1 [present compound (11)]	≥ 95
C#CCOc1ncc(CC(C#N)(C#N)CCC(F)(F)F)s1 [present compound (19)]	≥ 95
CC(C)(C)c1ncc(CC(C#N)(C#N)CCC(F)(F)F)s1 [present compound (17)]	≥ 95
